Measurements published in patent US11344542B2, “Treatment of aging-associated disease with modulators of leukotriene A4 hydrolase” (Alkahest, Inc., priority 2018, dated 2022).
Entries after “also recorded” stand apart in the source; their conditions may differ.

Columns and labels:
[1] = test system: nineteen-month-old wild type (C57BL/6) mice; experiment: Y-maze in aged mice treated with inhibitors; assay type: in vivo, mouse; details: PO daily for 4 weeks, SC 5 mg/kg, CP 10 mg/kg
Description: A large Y-maze test assessed short-term memory of the familiarity of a specific context. Mice were brought to the experimental room for at least 30 min of acclimation to the experimental room conditions (dim lighting) prior to testing. For the initial training trial, the mouse was placed at the end of one arm of a large Y-maze designated “start arm” (arm length: 15 inches). The third arm of the maze was blocked off, allowing the mouse to explore two of the three arms freely (“start arm” and “familiar arm”) for 5 min. Each arm contained spatial cues. Three hours later, the mouse was placed back into the maze in the “start arm,” and allowed to explore all three arms with the third arm unblocked (“novel arm”). Movements in and out of each arm were tracked using automated tracking software (CleverSys or San Diego Instruments). Testing was performed under dim lighting, and the apparatus was cleaned with 70% ethanol between trials. The time spent and number of entireties into the “novel arm” and “familiar arm” were analyzed, as well as total distance travelled and velocity as measures of general locomotor activity.
Recombinant human LTA4H (Bio-techne, 4008-SN) was buffer-exchanged into sterile PBS and dosed at 4.6 ug/150 uL by tail vein i.v. injection. SC-57461A (Cayman Chemical, 423169-68) stock solution was prepared at 10 mg/mL in DMSO. […]

hippocampal mRNA levels = experiment: qPCR of hippocampal mRNA levels in aged mice treated with inhibitors; assay type: in vivo, mouse; details: PO daily for 4 weeks, vs vehicle
Description: (§1) Brains were collected following saline perfusion and separated by mid-sagittal slice with one-half drop fixed in freshly prepared 4% PFA. PFA was changed to 30% sucrose 24-48 hours later. A second change to 30% sucrose occurred 24 hours later. The second half was dissected into hippocampus and cortex and then snap frozen on dry ice.
(§2) Brain tissue was sectioned or lysed and analyzed for markers of neurogenesis and aging by standard histological and biochemical methods, including qRT-PCR, Western blot, ELISA, and immunohistochemistry.
(§3) Nineteen-month-old (19 mo) wild type (WT; C57BL/6) mice were homogenized into five (5) groups by body weight, total distance travelled in the open field test, and average velocity in the open field test. Group 1 was administered 10% EtOH control PO daily for 4 weeks, Group 2 was administered 5 mg/kg of SC-57461A LTA4H dual inhibitor PO daily for 4 weeks; Group 3 was administered 10 mg/kg of CP-105,696 LTB4 receptor (BLTR) antagonist PO daily for 4 weeks, Group 4 was administered 10 mg/kg of Montelukast cysteinyl receptor (CysLTR) antagonist daily for 4 weeks, and Group 5 was administered 10 mg/kg of pinostilbene hydrate daily for 4 weeks. During Week 4 of treatment all groups were tested using open field, radial arm water maze, and Y-maze. During Week 5 animals were sacrificed, and tissues collected for histological and biochemical analysis.

LTB4 = experiment: Plasma LTB4 by ELISA in aged mice treated with inhibitors; assay type: in vivo, mouse; details: terminal plasma, PO daily for 4 weeks, vs vehicle
Description: On the final day of dosing, mice were deeply anesthetized with Avertin (250 mg/kg IP). The mice are subjected to cardiac puncture and blood samples were collected using syringes pre-filled with EDTA or heparin. Blood was either subjected to calcimycin stimulation assay or separated into plasma by centrifugation. Plasma from each mouse was aliquoted and stored at −80° C.
The concentration of mouse LTB4, the product of LTA4H enzyme hydrolysis activity, was measured using commercially-available LTB4 parameter assay kits (R&D Systems and Enzo). Blood samples were collected by cardiac puncture into pre-filled syringes with EDTA and injected into a microcentrifuge tube. The plasma was separated by centrifugation at 1000 g for 15 minutes at 4 C. Alternatively, blood was subjected to a calcimycin stimulation assay to increase the production of LTB4 prior to plasma collection. All plasma was stored at −80 C until measurement of LTB4 levels. LTB4 levels were measured from the plasma from 4-15 individual young (3 month, 3M) or aged (22.5 month, 22.5M) wild-type mice (WT; C57BL/6).
Nineteen-month-old (19 mo) wild type (WT; C57BL/6) mice were homogenized into five (5) groups by body weight, total distance travelled in the open field test, and average velocity in the open field test. […]

[2] = test system: nineteen-month-old wild type (C57BL/6) mice; experiment: Radial arm water maze in aged mice treated with inhibitors; assay type: in vivo, mouse
Description: The water maze (see, e.g. Alamed J, et al., Two-day radial-arm water maze learning and memory tasks; robust resolution of amyloid-related memory deficits in transgenic mice., Nat. Protoc., 1(4):1671-79 (2006)), was filled with water at least 24 hours prior to the test to equilibrate to 25° C. The water was dyed with white latex paint to make the animals visible for tracking and to allow for the use of a hidden platform. Eight distinct visual cues were placed at the end of each of eight arms of the RAWM inserts. On day 1 animals were subjected to 5 trials each with a visible platform and a 30-minute inter-trial interval. Animals had 60 seconds to reach the platform. […] The goal arm remained constant and a different start arm was randomly assigned for each of the 5 trials so that mouse started in every arm once except for the two arms directly across from the platform. The goal arm was switched after every two mice and balanced between all treatment groups. After each trial the mice were placed in an empty cage with blue pads and allowed to dry off under a heat lamp before being placed back into their home cage. Testing day was 48 hours after training, when animals were subjected to the same test of 5 trials each and a 30-minute inter-trial interval, but with a hidden platform Animals were scored for the number of errors (entry into a non-goal arm) and for latency to reach the platform. All trials were recorded using TopScan software (CleverSys, Inc., Reston, Va.).
Recombinant human LTA4H (Bio-techne, 4008-SN) was buffer-exchanged into sterile PBS and dosed at 4.6 ug/150 uL by tail vein i.v. injection. SC-57461A (Cayman Chemical, 423169-68) stock solution was prepared at 10 mg/mL in DMSO. Stock solution was diluted into sterile PBS immediately prior to p.o. dosing to a final concentration of 10% DMSO and 1 mg/mL SC-57461A. Mice were p.o. dosed at 5 mg/kg. CP-105,696 (Sigma, PZ0363), Pinostilbene hydrate (Sigma, SML0098), and Montelukast (Cayman Chemical, 10008318) stock solutions were prepared at 30 mg/mL in EtOH/Solutol. […]

[3] = test system: aquaporin 4 (AQP4) in the hippocampus; experiment: Aquaporin 4 (AQP4) immunofluorescence in the hippocampus of aged mice; assay type: in vivo, mouse; details: 10 mg/kg PO daily for 4 weeks
Description: as §1, §2, §3

LTA4H = biological target: T1, LTA4H (Homo sapiens, UniProt P09960); details: in vitro; Low et al., Sci Rep 2017; cited from earlier work
T1 sequence (P09960 1-611): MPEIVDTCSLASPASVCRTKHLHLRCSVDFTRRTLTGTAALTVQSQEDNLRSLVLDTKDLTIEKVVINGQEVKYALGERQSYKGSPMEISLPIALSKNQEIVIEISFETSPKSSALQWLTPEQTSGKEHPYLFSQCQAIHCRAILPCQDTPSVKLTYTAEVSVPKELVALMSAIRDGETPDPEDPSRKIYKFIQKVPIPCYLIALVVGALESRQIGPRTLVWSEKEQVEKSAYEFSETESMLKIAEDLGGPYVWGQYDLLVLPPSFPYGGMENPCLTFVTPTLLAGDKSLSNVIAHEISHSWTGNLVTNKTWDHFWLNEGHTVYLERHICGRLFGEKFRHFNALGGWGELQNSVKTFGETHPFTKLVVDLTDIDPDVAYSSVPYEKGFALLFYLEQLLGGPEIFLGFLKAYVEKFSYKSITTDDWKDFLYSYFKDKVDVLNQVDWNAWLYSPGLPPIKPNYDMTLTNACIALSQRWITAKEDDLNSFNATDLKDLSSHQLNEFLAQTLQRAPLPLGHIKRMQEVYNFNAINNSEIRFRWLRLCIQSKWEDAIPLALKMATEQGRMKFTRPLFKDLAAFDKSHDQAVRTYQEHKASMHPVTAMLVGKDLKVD

[4] = hidden platform testing phase, compared to vehicle mice

SMILES | preference for the novel versus familiar arm in Y-maze (percentage of entries) [1] | IL-1β hippocampal mRNA expression (qPCR) (hippocampal mRNA levels) | IL-6 hippocampal mRNA expression (qPCR) (hippocampal mRNA levels) | TNFα hippocampal mRNA expression (qPCR) (hippocampal mRNA levels) | aqp4 hippocampal mRNA expression (qPCR) (hippocampal mRNA levels) | h2d1 hippocampal mRNA expression (qPCR) (hippocampal mRNA levels) | timp1 hippocampal mRNA expression (qPCR) (hippocampal mRNA levels) | plasma concentration of LTB4 measured by ELISA (LTB4) | hippocampus-dependent spatial memory in radial arm water maze ([2]; aged mice, PO daily for 4 weeks, SC 5 mg/kg, Montelukast 10 mg/kg) | latency to find the platform in radial arm water maze [2, 4] | number of errors in radial arm water maze [2, 4] | fluorescence intensity of AQP4 in the hippocampus immediately surrounding blood vessels (vascular) [3] | integrated optical density of aquaporin 4 (AQP4) in the hippocampus ([3]; vs vehicle, hydrate, 10 mg/kg) | inhibition of hydrolase versus peptidase activity of LTA4H (LTA4H)
O=C(O)C1(c2ccc3c(c2)OC[C@H](Cc2ccc(-c4ccccc4)cc2)[C@H]3O)CCCC1 [CP-105,696] | statistically significant preference for the novel arm | – | – | – | – | – | – | – | – | – | – | – | – | –
CN(CCCOc1ccc(Cc2ccccc2)cc1)CCC(=O)O.Cl [SC-57461A] | trend towards preference for the novel arm | significant decrease | significant decrease | significant decrease | significant decrease | significant decrease | trend towards a decrease | reduces | improvement | significantly shorter latency | fewer errors | – | – | –
COc1cc(O)cc(/C=C/c2ccc(O)cc2)c1 [pinostilbene hydrate] | – | – | – | significant decrease | – | – | – | did not detect a reduction | – | – | – | trend towards a decrease | trend towards a decrease; also recorded: significant reduction | only inhibit the hydrolase activity and not the peptidase activity
